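Grown in 96-well plates, cells were treated for 48 hours with each compound at five concentrations. Insufficient inhibition: endpoint recorded as highest concentration tested. TGI: total growth inhibition.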
Key:
Assay in all cases: NCI-60 cell line screen, 48 h
[1] = system: RXF 393 renal
[2] = system: UACC-62 melanoma
[3] = system: M14 melanoma
[4] = system: HL-60(TB) leukemia
[5] = system: TK-10 renal
[6] = system: OVCAR-4 ovarian
[7] = system: HOP-92 NSCLC
[8] = system: BT-549 breast
[9] = system: SNB-19 CNS
[10] = system: HT29 colon
[11] = system: MDA-MB-435
[12] = system: T-47D breast
[13] = system: A549 NSCLC
[14] = system: SN12C renal
[15] = system: SK-MEL-28 melanoma
[16] = system: NCI-H522 lung
[17] = system: RPMI-8226 leukemia
[18] = system: SK-MEL-5 melanoma
[19] = system: IGROV1 ovarian
[20] = system: MDA-MB-231 breast
[21] = system: OVCAR-5 ovarian
[22] = system: ACHN renal
[23] = system: HCC-2998 colon
[24] = system: LOX IMVI melanoma
[25] = system: KM12 colon
[26] = system: CCRF-CEM leukemia
[27] = system: NCI-H23 lung
[28] = system: HS 578T breast
[29] = system: HOP-62 NSCLC
[30] = system: SW-620 colon
[31] = system: SR leukemia
[32] = system: SK-OV-3 ovarian
[33] = system: HCT-15 colon
[34] = system: HCT-116 colon
[35] = system: NCI-H226 lung
[36] = system: K-562 leukemia
[37] = system: SF-295 CNS
[38] = system: 786-0 renal
[39] = system: OVCAR-3 ovarian
[40] = system: MDA-N
[41] = system: COLO 205 colon
[42] = system: MCF7 breast
[43] = system: SF-539 CNS
[44] = system: MALME-3M melanoma
[45] = system: NCI-H460 lung
[46] = system: OVCAR-8 ovarian
[47] = system: NCI/ADR-RES ovarian
[48] = system: MOLT-4 leukemia
[49] = system: DU-145 prostate
[50] = system: PC-3 prostate
[51] = system: SF-268 CNS
[52] = system: CAKI-1 renal
[53] = system: U251 CNS
[54] = system: A498 renal
[55] = system: UO-31 renal
[56] = system: EKVX NSCLC
[57] = system: UACC-257 melanoma
[58] = system: SK-MEL-2 melanoma
[59] = system: SNB-75 CNS
[60] = system: KM20L2 colon
[61] = system: SNB-78 CNS
[62] = system: DMS 114 small cell lung

SMILES: COC(=O)/C=C\C(C#N)(C#N)N=Cc1cc(Br)cs1
- TGI [1]: 5.38 µM
- TGI [2]: 33 µM
- TGI [3]: 6.48 µM
- TGI [4]: 0.12 µM
- TGI [5]: 8.45 µM
- TGI [6]: 27.1 µM
- TGI [7]: 4.73 µM
- TGI [8]: 17.9 µM
- TGI [9]: 32.5 µM
- TGI [10]: 4.86 µM
- TGI [11]: 8.34 µM
- TGI [12]: 5.07 µM
- TGI [13]: 32.4 µM
- TGI [14]: 7.64 µM
- TGI [15]: 10.4 µM
- TGI [16]: 2.9 µM
- TGI [17]: > 71.3 µM
- TGI [18]: 18.3 µM
- TGI [19]: 14.1 µM
- TGI [20]: 23.3 µM
- TGI [21]: 20.8 µM
- TGI [22]: 4.93 µM
- TGI [23]: 30.8 µM
- TGI [24]: 4.51 µM
- TGI [25]: 48 µM
- TGI [26]: 2.38 µM
- TGI [27]: 13.5 µM
- TGI [28]: 45.1 µM
- TGI [29]: 33 µM
- TGI [30]: 2.72 µM
- TGI [31]: > 100 µM
- TGI [32]: 33.6 µM
- TGI [33]: 6.37 µM
- TGI [34]: 3.72 µM
- TGI [35]: 35.3 µM
- TGI [36]: > 100 µM
- TGI [37]: 31.8 µM
- TGI [38]: 3.78 µM
- TGI [39]: 17.4 µM
- TGI [40]: 6.62 µM
- TGI [41]: 3.99 µM
- TGI [42]: 4.49 µM
- TGI [43]: 11 µM
- TGI [44]: 3.47 µM
- TGI [45]: 40.7 µM
- TGI [46]: 11.1 µM
- TGI [47]: 36.3 µM
- TGI [48]: > 100 µM
- TGI [49]: 19.1 µM
- TGI [50]: 16 µM
- TGI [51]: 16.5 µM
- TGI [52]: 7.53 µM
- TGI [53]: 29.3 µM
- TGI [54]: 32.9 µM
- TGI [55]: 5.01 µM
- TGI [56]: 18.7 µM
- TGI [57]: 7.74 µM
- TGI [58]: 25.5 µM
- TGI [59]: 29.7 µM

SMILES: COc1ccc2c(C(=O)c3cn(CCN4CCOCC4)c4ccccc34)cccc2c1
- TGI [1]: > 100 µM
- TGI [2]: > 100 µM
- TGI [3]: > 87.5 µM
- TGI [4]: 54.3 µM
- TGI [5]: > 100 µM
- TGI [6]: > 100 µM
- TGI [7]: > 100 µM
- TGI [8]: > 100 µM
- TGI [9]: > 100 µM
- TGI [10]: > 100 µM
- TGI [11]: > 100 µM
- TGI [12]: > 100 µM
- TGI [13]: > 100 µM
- TGI [14]: > 100 µM
- TGI [15]: > 100 µM
- TGI [16]: > 100 µM
- TGI [17]: > 100 µM
- TGI [18]: > 100 µM
- TGI [19]: > 100 µM
- TGI [20]: > 100 µM
- TGI [21]: > 100 µM
- TGI [22]: > 100 µM
- TGI [23]: > 100 µM
- TGI [24]: > 100 µM
- TGI [25]: > 100 µM
- TGI [26]: 85.5 µM
- TGI [27]: > 100 µM
- TGI [28]: > 100 µM
- TGI [29]: > 100 µM
- TGI [30]: > 100 µM
- TGI [31]: > 100 µM
- TGI [32]: > 100 µM
- TGI [33]: > 100 µM
- TGI [34]: > 100 µM
- TGI [35]: > 100 µM
- TGI [36]: > 100 µM
- TGI [37]: > 54.8 µM
- TGI [38]: > 100 µM
- TGI [39]: > 25.5 µM
- TGI [40]: > 100 µM
- TGI [41]: > 92 µM
- TGI [42]: > 80.2 µM
- TGI [43]: > 100 µM
- TGI [44]: > 75.7 µM
- TGI [45]: > 100 µM
- TGI [46]: > 100 µM
- TGI [47]: > 100 µM
- TGI [48]: 64.4 µM
- TGI [49]: > 100 µM
- TGI [50]: > 100 µM
- TGI [51]: > 100 µM
- TGI [52]: > 100 µM
- TGI [53]: > 100 µM
- TGI [54]: > 100 µM
- TGI [55]: > 100 µM
- TGI [56]: > 100 µM
- TGI [57]: > 100 µM
- TGI [58]: > 100 µM
- TGI [59]: > 100 µM

SMILES: COC1CCCCN1C(=O)c1ccccc1 (stereo unspecified)
- TGI [1]: > 25.3 µM
- TGI [2]: > 25.3 µM
- TGI [3]: > 25.3 µM
- TGI [4]: > 25.3 µM
- TGI [60]: > 25.3 µM
- TGI [5]: > 25.3 µM
- TGI [6]: > 25.3 µM
- TGI [7]: > 25.3 µM
- TGI [9]: > 25.3 µM
- TGI [13]: > 25.3 µM
- TGI [14]: > 25.3 µM
- TGI [15]: > 25.3 µM
- TGI [18]: > 25.3 µM
- TGI [19]: > 25.3 µM
- TGI [21]: > 25.3 µM
- TGI [22]: > 25.3 µM
- TGI [23]: > 25.3 µM
- TGI [24]: > 25.3 µM
- TGI [61]: > 25.3 µM
- TGI [25]: > 25.3 µM
- TGI [27]: > 25.3 µM
- TGI [30]: > 25.3 µM
- TGI [31]: > 25.3 µM
- TGI [32]: > 25.3 µM
- TGI [33]: > 25.3 µM
- TGI [34]: > 25.3 µM
- TGI [35]: > 25.3 µM
- TGI [36]: > 25.3 µM
- TGI [38]: > 25.3 µM
- TGI [39]: > 25.3 µM
- TGI [44]: > 25.3 µM
- TGI [48]: > 25.3 µM
- TGI [51]: > 25.3 µM
- TGI [52]: > 25.3 µM
- TGI [53]: > 25.3 µM
- TGI [55]: > 25.3 µM
- TGI [58]: > 25.3 µM
- TGI [62]: > 25.3 µM
- TGI [59]: > 25.3 µM

SMILES: CCOC(=O)/C=C(\C(=O)OCC)n1ccc(=O)n(Cc2cn(CCCCOC(C)=O)nn2)c1=O
- TGI [1]: 47.4 µM
- TGI [2]: 33.2 µM
- TGI [3]: 54.8 µM
- TGI [4]: 1.25 µM
- TGI [5]: 13.6 µM
- TGI [6]: 48.2 µM
- TGI [7]: 5.15 µM
- TGI [8]: 24.7 µM
- TGI [9]: > 55.6 µM
- TGI [10]: 21.7 µM
- TGI [11]: 18.1 µM
- TGI [12]: > 41 µM
- TGI [13]: 45.9 µM
- TGI [14]: 43 µM
- TGI [15]: 21.2 µM
- TGI [16]: 4.03 µM
- TGI [17]: > 36 µM
- TGI [18]: > 54.2 µM
- TGI [19]: 43 µM
- TGI [20]: 39.1 µM
- TGI [21]: 31.4 µM
- TGI [22]: 11.4 µM
- TGI [23]: 41 µM
- TGI [24]: 48.1 µM
- TGI [25]: 31.5 µM
- TGI [26]: 4.59 µM
- TGI [27]: 32.3 µM
- TGI [28]: 63.1 µM
- TGI [29]: 41.2 µM
- TGI [30]: 8.38 µM
- TGI [31]: > 36 µM
- TGI [32]: > 65.5 µM
- TGI [33]: 25.3 µM
- TGI [34]: > 47.4 µM
- TGI [35]: 32.7 µM
- TGI [36]: > 34.1 µM
- TGI [37]: > 62.1 µM
- TGI [38]: > 51.1 µM
- TGI [39]: 29.2 µM
- TGI [40]: 42.6 µM
- TGI [41]: > 36.2 µM
- TGI [42]: 23.8 µM
- TGI [43]: 5.65 µM
- TGI [44]: 4.83 µM
- TGI [45]: 57.7 µM
- TGI [46]: 20.1 µM
- TGI [47]: 53.3 µM
- TGI [48]: 9.12 µM
- TGI [49]: 45.4 µM
- TGI [50]: 36.9 µM
- TGI [51]: 36.9 µM
- TGI [52]: 8.57 µM
- TGI [53]: 30.9 µM
- TGI [54]: 32 µM
- TGI [55]: 28.6 µM
- TGI [56]: 31.4 µM
- TGI [57]: 32.9 µM
- TGI [58]: 37 µM
- TGI [59]: 41.8 µM
